Results reported in ChEMBL document CHEMBL1201862, “PubChem BioAssay data set” (2004).
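Compound exposure: 48 hours, 5 concentrations, 96-well plates. GI50 marks 50% less growth.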 Calls of active or inactive are those of the source. Cut-off read from the data, not from the text of the source: active = GI50 up to about 1.1 µM and inactive = higher.

Key:
Test in all cases: inhibition of tumour cell growth, NCI panel, 48 h
[1] = tested on: ACHN
[2] = tested on: RXF 393
[3] = tested on: Hs-578T
[4] = tested on: DU-145
[5] = tested on: SK-OV-3
[6] = tested on: U-251
[7] = tested on: A549
[8] = tested on: SK-MEL-28
[9] = tested on: HCC 2998
[10] = tested on: PC-3
[11] = tested on: HT-29
[12] = tested on: OVCAR-5
[13] = tested on: MDA-N
[14] = tested on: LOX IMVI
[15] = tested on: NCI-H226
[16] = tested on: HOP-92
[17] = tested on: HCT-116
[18] = tested on: K562
[19] = tested on: IGROV-1
[20] = tested on: SR
[21] = tested on: Malme-3M
[22] = tested on: COLO 205
[23] = tested on: NCI-H23
[24] = tested on: SNB-75
[25] = tested on: EKVX
[26] = tested on: OVCAR-8
[27] = tested on: NCI-H460
[28] = tested on: MOLT-4
[29] = tested on: SF-539
[30] = tested on: NCI-H522
[31] = tested on: SF-295
[32] = tested on: TK-10
[33] = tested on: CAKI-1
[34] = tested on: T47D
[35] = tested on: MDA-MB-231
[36] = tested on: KM12
[37] = tested on: HCT-15
[38] = tested on: UACC-62
[39] = tested on: SK-MEL-5
[40] = tested on: BT-549
[41] = tested on: 786-0
[42] = tested on: SW-620
[43] = tested on: SK-MEL-2
[44] = tested on: M14
[45] = tested on: SNB-19
[46] = tested on: UACC-257
[47] = tested on: OVCAR-4
[48] = tested on: CCRF-CEM
[49] = tested on: SF-268
[50] = tested on: MDA-MB-435
[51] = tested on: OVCAR-3
[52] = tested on: A498
[53] = tested on: HOP-62
[54] = tested on: RPMI-8226
[55] = tested on: HL-60
[56] = tested on: NCI/ADR-RES
[57] = tested on: SN12C
[58] = tested on: UO-31
[59] = tested on: MCF7

Compound: CCN(CC)CCSc1nc2c(c(=N)n1-c1ccccc1)c(=S)n(-c1ccccc1)c(=S)n2-c1ccccc1
- GI50 [1]: 1.74 µM (inactive)
- GI50 [2]: 1.36 µM (inactive)
- GI50 [3]: 2.58 µM (inactive)
- GI50 [4]: 1.67 µM (inactive)
- GI50 [5]: 6.65 µM (inactive)
- GI50 [6]: 2.37 µM (inactive)
- GI50 [7]: 2.08 µM (inactive)
- GI50 [8]: 3.62 µM (inactive)
- GI50 [9]: 1.58 µM (inactive)
- GI50 [10]: 1.8 µM (inactive)
- GI50 [11]: 1.77 µM (inactive)
- GI50 [12]: 14.9 µM (inactive)
- GI50 [13]: 2.36 µM (inactive)
- GI50 [14]: 1.46 µM (inactive)
- GI50 [15]: 25.7 µM (inactive)
- GI50 [16]: 1.41 µM (inactive)
- GI50 [17]: 2.06 µM (inactive)
- GI50 [18]: 0.601 µM (active)
- GI50 [19]: 1.64 µM (inactive)
- GI50 [20]: 0.257 µM (active)
- GI50 [21]: 1.55 µM (inactive)
- GI50 [22]: 1.66 µM (inactive)
- GI50 [23]: 3.69 µM (inactive)
- GI50 [24]: 2.19 µM (inactive)
- GI50 [25]: 2.54 µM (inactive)
- GI50 [26]: 1.71 µM (inactive)
- GI50 [27]: 1.91 µM (inactive)
- GI50 [28]: 0.194 µM (active)
- GI50 [29]: 4.45 µM (inactive)
- GI50 [30]: 0.843 µM (active)
- GI50 [31]: 12.8 µM (inactive)
- GI50 [32]: 1.73 µM (inactive)
- GI50 [33]: 1.5 µM (inactive)
- GI50 [34]: 2.61 µM (inactive)
- GI50 [35]: 1.83 µM (inactive)
- GI50 [36]: 5.69 µM (inactive)
- GI50 [37]: 1.77 µM
- GI50 [38]: 1.71 µM (inactive)
- GI50 [39]: 3.24 µM (inactive)
- GI50 [40]: 2.23 µM (inactive)
- GI50 [41]: 0.441 µM (active)
- GI50 [42]: 1.67 µM (inactive)
- GI50 [43]: 7.55 µM (inactive)
- GI50 [44]: 2.16 µM (inactive)
- GI50 [45]: 18.3 µM (inactive)
- GI50 [46]: 1.72 µM (inactive)
- GI50 [47]: 3.47 µM (inactive)
- GI50 [48]: 0.0843 µM (active)
- GI50 [49]: 1.67 µM (inactive)
- GI50 [50]: 1.85 µM (inactive)
- GI50 [51]: 1.64 µM (inactive)
- GI50 [52]: 8.85 µM (inactive)
- GI50 [53]: 2.85 µM (inactive)
- GI50 [54]: 0.275 µM (active)
- GI50 [55]: 0.0559 µM (active)
- GI50 [56]: 5.36 µM (inactive)
- GI50 [57]: 1.73 µM (inactive)

Compound: CCc1n[nH]c(=O)n1/N=C(\C)c1ccccc1
- GI50 [1]: > 100 µM (inactive)
- GI50 [2]: > 100 µM (inactive)
- GI50 [3]: > 100 µM (inactive)
- GI50 [4]: > 100 µM (inactive)
- GI50 [6]: > 100 µM (inactive)
- GI50 [7]: > 100 µM (inactive)
- GI50 [8]: > 100 µM (inactive)
- GI50 [10]: > 100 µM (inactive)
- GI50 [11]: > 100 µM (inactive)
- GI50 [12]: > 100 µM (inactive)
- GI50 [58]: > 100 µM (inactive)
- GI50 [13]: > 100 µM (inactive)
- GI50 [14]: > 100 µM (inactive)
- GI50 [15]: > 100 µM (inactive)
- GI50 [17]: > 100 µM (inactive)
- GI50 [18]: > 100 µM (inactive)
- GI50 [19]: > 100 µM (inactive)
- GI50 [21]: > 100 µM (inactive)
- GI50 [22]: > 100 µM (inactive)
- GI50 [23]: > 100 µM (inactive)
- GI50 [25]: 68.5 µM (inactive)
- GI50 [26]: > 100 µM (inactive)
- GI50 [28]: > 100 µM (inactive)
- GI50 [29]: > 100 µM (inactive)
- GI50 [30]: > 100 µM (inactive)
- GI50 [31]: > 100 µM (inactive)
- GI50 [32]: > 100 µM (inactive)
- GI50 [33]: > 100 µM (inactive)
- GI50 [34]: > 100 µM (inactive)
- GI50 [35]: > 100 µM (inactive)
- GI50 [36]: > 100 µM (inactive)
- GI50 [37]: > 100 µM
- GI50 [38]: > 100 µM (inactive)
- GI50 [39]: > 100 µM (inactive)
- GI50 [40]: > 100 µM (inactive)
- GI50 [41]: > 100 µM (inactive)
- GI50 [42]: > 100 µM (inactive)
- GI50 [43]: > 100 µM (inactive)
- GI50 [44]: > 100 µM (inactive)
- GI50 [45]: > 100 µM (inactive)
- GI50 [46]: > 100 µM (inactive)
- GI50 [59]: > 100 µM (inactive)
- GI50 [47]: > 100 µM (inactive)
- GI50 [48]: > 100 µM (inactive)
- GI50 [49]: > 100 µM (inactive)
- GI50 [50]: > 100 µM (inactive)
- GI50 [51]: > 100 µM (inactive)
- GI50 [52]: > 100 µM (inactive)
- GI50 [53]: > 100 µM (inactive)
- GI50 [54]: > 100 µM (inactive)
- GI50 [55]: > 100 µM (inactive)
- GI50 [56]: > 100 µM (inactive)
- GI50 [57]: > 100 µM (inactive)
